# Assay results taken from ChEMBL document CHEMBL5331122, “Structure-Activity Relationship Study of Antimicrobial Peptide PE2 Delivered Novel Linear Derivatives with Potential of Eradicating Biofilms and Low Incidence of Drug Resistance” (J Med Chem, 2023).
# Activity calls are given as the source filed them. The rule behind the calls is not given here.
# Key:
# Escherichia coli [1] = assay: Antibacterial activity against Escherichia coli ATCC 25922 assessed as bacterial growth inhibition incubated for 18 hrs by broth microdilution method; type: functional
# Klebsiella pneumoniae = assay: Antibacterial activity against Klebsiella pneumoniae ATCC 700603 assessed as bacterial growth inhibition incubated for 18 hrs by broth microdilution method; type: functional
# Pseudomonas aeruginosa = assay: Antibacterial activity against Pseudomonas aeruginosa ATCC 27853 assessed as bacterial growth inhibition incubated for 18 hrs by broth microdilution method; type: functional
# Staphylococcus aureus [2] = assay: Antibacterial activity against Staphylococcus aureus ATCC 25923 assessed as bacterial growth inhibition incubated for 18 hrs by broth microdilution method; type: functional
# Enterococcus faecalis = assay: Antibacterial activity against Enterococcus faecalis ATCC 29212 assessed as bacterial growth inhibition incubated for 18 hrs by broth microdilution method; type: functional
# [3] = Cytotoxicity against human HEK293T cells assessed as inhibition of cell growth incubated for 24 hrs by resazurin dye based analysis; type: toxicity, HEK-293T
# Escherichia coli [4] = assay: Antibacterial activity against Escherichia coli ATCC 25922 assessed as fold increase in MIC in presence of NaCl; type: functional
# Escherichia coli [5] = assay: Antibacterial activity against Escherichia coli ATCC 25922 assessed as fold increase in MIC in presence of MgCl2; type: functional
# Escherichia coli [6] = assay: Antibacterial activity against Escherichia coli ATCC 25922 assessed as fold increase in MIC in presence of ZnCl2; type: functional
# Staphylococcus aureus [7] = assay: Antibacterial activity against Staphylococcus aureus ATCC 25923 assessed as fold increase in MIC in presence of NaCl; type: functional
# Staphylococcus aureus [8] = assay: Antibacterial activity against Staphylococcus aureus ATCC 25923 assessed as fold increase in MIC in presence of MgCl2; type: functional
# Staphylococcus aureus [9] = assay: Antibacterial activity against Staphylococcus aureus ATCC 25923 assessed as fold increase in MIC in presence of ZnCl2; type: functional
# Staphylococcus aureus [10] = assay: Antibacterial activity against Staphylococcus aureus ATCC 25923 assessed as fold increase in MIC in presence of FeCl3; type: functional
# Escherichia coli [11] = assay: Antibacterial activity against Escherichia coli ATCC 25922 in presence of 10% mouse serum measured for 6 hrs; type: functional, organism-based
# Escherichia coli [12] = assay: Antimicrobial activity against Escherichia coli ATCC 25922 assessed as reduction in survival bacterial growth in presence of trypsin measured after 6 hrs; type: functional, organism-based
# Escherichia coli [13] = assay: Inhibition of biofilm formation in Escherichia coli ATCC 25922 assessed as inhibition of biofilm formation at 1/4 times MIC incubated for 24 hrs by crystal violet staining based analysis; type: functional, organism-based
# Escherichia coli [14] = assay: Inhibition of biofilm formation in Escherichia coli ATCC 25922 assessed as inhibition of biofilm formation at 1 to 2 times MIC incubated for 24 hrs by crystal violet staining based analysis; type: functional, organism-based
# Staphylococcus aureus [15] = assay: Inhibition of biofilm formation in Staphylococcus aureus ATCC 25923 assessed as inhibition of biofilm formation at 1/4 times MIC incubated for 24 hrs by crystal violet staining based analysis; type: functional, organism-based
# Staphylococcus aureus [16] = assay: Inhibition of biofilm formation in Staphylococcus aureus ATCC 25923 assessed as inhibition of biofilm formation at 1/2 times MIC incubated for 24 hrs by crystal violet staining based analysis; type: functional, organism-based
# Staphylococcus aureus [17] = assay: Inhibition of biofilm formation in Staphylococcus aureus ATCC 25923 assessed as inhibition of biofilm formation at 1 times MIC incubated for 24 hrs by crystal violet staining based analysis; type: functional, organism-based
# Staphylococcus aureus [18] = assay: Inhibition of biofilm formation in Staphylococcus aureus ATCC 25923 assessed as inhibition of biofilm formation at 2 times MIC incubated for 24 hrs by crystal violet staining based analysis; type: functional, organism-based
# Escherichia coli [19] = assay: Antibiofilm activity against Escherichia coli ATCC 25922 assessed as biofilm eradication at 2 times MIC incubated for 24 hrs; type: functional, organism-based
# Escherichia coli [20] = assay: Antibiofilm activity against Escherichia coli ATCC 25922 assessed as biofilm eradication at 4 times MIC incubated for 24 hrs; type: functional, organism-based
# Staphylococcus aureus [21] = assay: Antibiofilm activity against Staphylococcus aureus ATCC 25923 assessed as biofilm eradication at 1 times MIC incubated for 24 hrs; type: functional, organism-based
# Staphylococcus aureus [22] = assay: Antibiofilm activity against Staphylococcus aureus ATCC 25923 assessed as biofilm eradication at 2 times MIC incubated for 24 hrs; type: functional, organism-based
# Staphylococcus aureus [23] = assay: Antibiofilm activity against Staphylococcus aureus ATCC 25923 assessed as biofilm eradication at 4 times MIC incubated for 24 hrs; type: functional, organism-based
# Staphylococcus aureus [24] = assay: Antibiofilm activity against Staphylococcus aureus ATCC 25923 assessed as biofilm eradication at 8 times MIC incubated for 24 hrs; type: functional, organism-based
# Escherichia coli [25] = assay: Bactericidal activity against Escherichia coli ATCC 25922 assessed as inhibition of bacterial growth at 0.5 to 2 times MIC by time-kill assay; type: functional, organism-based; details: time <= 360.0 min, TDE = time-dependent effect
# Escherichia coli [26] = assay: Bactericidal activity against Escherichia coli ATCC 25922 assessed as inhibition of bacterial growth at 2 times MIC measured upto 360 mins by time-kill assay; type: functional, organism-based
# Staphylococcus aureus [27] = assay: Bactericidal activity against Staphylococcus aureus ATCC 25923 assessed as inhibition of bacterial growth at 0.5 to 2 times MIC by time-kill assay; type: functional, organism-based; details: time <= 360.0 min, TDE = time-dependent effect
# Staphylococcus aureus [28] = assay: Bactericidal activity against Staphylococcus aureus ATCC 25923 assessed as inhibition of bacterial growth incubated upto 360 mins by time-kill assay; type: functional, organism-based
# Escherichia coli [29] = assay: Bactericidal activity against Escherichia coli ATCC 25922 assessed as inhibition of bacterial growth at 1/2 times MIC measured at 180 mins by time-kill assay; type: functional, organism-based
# Escherichia coli [30] = assay: Antimicrobial activity against Escherichia coli ATCC 25922 assessed as reduction in microbial growth measured for 18 hrs in presence of 512 microg/ml LPS; type: functional, organism-based
# Cell membrane [31] = assay: Induction of outer membrane permeabilization in Escherichia coli ATCC 25922 assessed as increase in fluorescence intensity at 4 times MIC measured for 12 hrs by NPN uptake assay; type: subcellular
# Cell membrane [32] = assay: Induction of inner membrane permeabilization in Escherichia coli ML-35 ATCC 43837 assessed as increase in fluorescence intensity at 1 to 4 times MIC incubated upto 150 mins by ONPG staining based analysis; type: subcellular
# Cell membrane [33] = assay: Induction of cell membrane damage in Escherichia coli ATCC 25922 at 2 times MIC after 0.5 to 2 hrs by propidium iodide staining based flow cytometer assay; type: subcellular; details: time 0.5-2 hrs
# Cell membrane [34] = assay: Induction of cell membrane damage in Staphylococcus aureus ATCC 25923 at 2 times MIC measured at 30 mins by propidium iodide staining based flow cytometer assay; type: subcellular
# Escherichia coli [35] = assay: Induction of membrane morphological changes in Escherichia coli ATCC 25922 at 4 times MIC measured at 0.5 to 2 hrs by SEM analysis; type: functional, organism-based; details: time 0.5-2 hrs
# Staphylococcus aureus [36] = assay: Induction of membrane morphological changes in Staphylococcus aureus ATCC 25923 assessed as appearance of broken bacterial cells at 4 times MIC measured at 0.5 to 2 hrs by SEM analysis; type: functional, organism-based; details: time 0.5-2 hrs
# Staphylococcus aureus [37] = assay: Induction of membrane morphological changes in Staphylococcus aureus ATCC 25923 assessed as appearance of blistered bacterial cells at 4 times MIC measured at 0.5 to 2 hrs by SEM analysis; type: functional, organism-based; details: time 0.5-2 hrs
# Staphylococcus aureus [38] = assay: Induction of membrane morphological changes in Staphylococcus aureus ATCC 25923 assessed as appearance of adherent bacterial cells at 4 times MIC measured at 0.5 to 2 hrs by SEM analysis; type: functional, organism-based; details: time 0.5-2 hrs
smiles,measurement,setting,value
CC[C@H](C)[C@@H]1NC(=O)[C@H](CCN)NC(=O)C[C@@H](C(C)C)OC(=O)[C@H]([C@@H](C)O)NC(=O)[C@H](CC(C)C)NC(=O)[C@@H](C(C)C)NC(=O)[C@H](CCN)NC(=O)[C@H](CC(C)C)NC(=O)[C@@H](Cc2ccccc2)NC(=O)[C@H](CCN)NC1=O,MIC,Escherichia coli [1],8 µg/mL
same,MIC,Klebsiella pneumoniae,4 µg/mL
same,MIC,Pseudomonas aeruginosa,8 µg/mL
same,MIC,Staphylococcus aureus [2],8 µg/mL
same,MIC,Enterococcus faecalis,16 µg/mL
same,IC50 at 24 h,[3],29.2 µg/mL
same,fold change (FC),Escherichia coli [4],<=2
same,fold change (FC),Escherichia coli [5],<=2
same,fold change (FC),Escherichia coli [6],<=2
same,fold change (FC),Staphylococcus aureus [7],<=2
same,fold change (FC),Staphylococcus aureus [8],<=2
same,fold change (FC),Staphylococcus aureus [9],<=2
same,fold change (FC),Staphylococcus aureus [10],<=2
same,Activity,Escherichia coli [11],Active
same,Activity,Escherichia coli [12],Active
same,inhibition,Escherichia coli [13],inactive
same,inhibition,Escherichia coli [14],Active
same,inhibition,Staphylococcus aureus [15],Active
same,inhibition,Staphylococcus aureus [16],Active
same,inhibition,Staphylococcus aureus [17],Active
same,inhibition,Staphylococcus aureus [18],Active
same,Activity,Escherichia coli [19],Active
same,Activity,Escherichia coli [20],Active
same,Activity,Staphylococcus aureus [21],inactive
same,Activity,Staphylococcus aureus [22],Active
same,Activity,Staphylococcus aureus [23],Active
same,Activity,Staphylococcus aureus [24],Active
same,Activity,Escherichia coli [25],Tde
same,Activity,Escherichia coli [26],Active
same,Activity,Staphylococcus aureus [27],Tde
same,Activity,Staphylococcus aureus [28],Dose-Dependent Effect
same,Activity,Escherichia coli [29],Active
same,Activity,Escherichia coli [30],inactive
same,Activity,Cell membrane [31],Active
same,Activity,Cell membrane [32],Active
same,Activity,Cell membrane [33],Active
same,Activity,Cell membrane [34],inactive
same,Activity,Escherichia coli [35],Active
same,Activity,Staphylococcus aureus [36],Active
same,Activity,Staphylococcus aureus [37],Active
same,Activity,Staphylococcus aureus [38],Active
CCCCCCC(=O)N[C@@H](CCN)C(=O)N[C@H](C(=O)N[C@@H](CCN)C(=O)N[C@H](Cc1ccccc1)C(=O)N[C@@H](CC(C)C)C(=O)N[C@@H](CCN)C(=O)N[C@@H](C(=O)N[C@@H](CC(C)C)C(=O)N[C@@H](Cc1ccc(O)cc1)C(N)=O)C(C)C)[C@@H](C)CC,MIC,Escherichia coli [1],8 µg/mL
same,MIC,Klebsiella pneumoniae,8 µg/mL
same,MIC,Pseudomonas aeruginosa,4 µg/mL
same,MIC,Staphylococcus aureus [2],8 µg/mL
same,MIC,Enterococcus faecalis,64 µg/mL
same,IC50 at 24 h,[3],32.5 µg/mL
same,fold change (FC),Escherichia coli [4],<=2
same,fold change (FC),Escherichia coli [5],<=2
same,fold change (FC),Escherichia coli [6],<=2
same,fold change (FC),Staphylococcus aureus [7],<=2
same,fold change (FC),Staphylococcus aureus [8],<=2
same,fold change (FC),Staphylococcus aureus [9],<=2
same,fold change (FC),Staphylococcus aureus [10],<=2
same,Activity,Escherichia coli [11],Active
same,Activity,Escherichia coli [12],Active
same,inhibition,Escherichia coli [13],Active
same,inhibition,Escherichia coli [14],Active
same,inhibition,Staphylococcus aureus [15],Active
same,inhibition,Staphylococcus aureus [16],Active
same,inhibition,Staphylococcus aureus [17],inactive
same,inhibition,Staphylococcus aureus [18],Active
same,Activity,Escherichia coli [19],Active
same,Activity,Escherichia coli [20],Active
same,Activity,Staphylococcus aureus [21],inactive
same,Activity,Staphylococcus aureus [22],Active
same,Activity,Staphylococcus aureus [23],Active
same,Activity,Staphylococcus aureus [24],Active
same,Activity,Escherichia coli [25],Tde
same,Activity,Escherichia coli [26],Active
same,Activity,Staphylococcus aureus [27],Tde
same,Activity,Staphylococcus aureus [28],Dose-Dependent Effect
same,Activity,Escherichia coli [29],Active
same,Activity,Escherichia coli [30],inactive
same,Activity,Cell membrane [31],Active
same,Activity,Cell membrane [32],Active
same,Activity,Cell membrane [33],Active
same,Activity,Cell membrane [34],inactive
same,Activity,Escherichia coli [35],Active
same,Activity,Staphylococcus aureus [36],Active
same,Activity,Staphylococcus aureus [37],Active
same,Activity,Staphylococcus aureus [38],Active
CCCCCCCC(=O)N[C@@H](CCN)C(=O)N[C@H](C(=O)N[C@@H](CCN)C(=O)N[C@H](Cc1ccccc1)C(=O)N[C@@H](CC(C)C)C(=O)N[C@@H](CCN)C(=O)N[C@@H](C(=O)N[C@@H](CC(C)C)C(=O)N[C@@H](Cc1ccc(O)cc1)C(N)=O)C(C)C)[C@@H](C)CC,MIC,Escherichia coli [1],4 µg/mL
same,MIC,Klebsiella pneumoniae,8 µg/mL
same,MIC,Pseudomonas aeruginosa,4 µg/mL
same,MIC,Staphylococcus aureus [2],8 µg/mL
same,MIC,Enterococcus faecalis,16 µg/mL
same,IC50 at 24 h,[3],24.2 µg/mL
same,fold change (FC),Escherichia coli [4],<=2
same,fold change (FC),Escherichia coli [5],<=2
same,fold change (FC),Escherichia coli [6],<=2
same,fold change (FC),Staphylococcus aureus [7],<=2
same,fold change (FC),Staphylococcus aureus [8],<=2
same,fold change (FC),Staphylococcus aureus [9],<=2
same,fold change (FC),Staphylococcus aureus [10],<=2
same,Activity,Escherichia coli [11],Active
same,Activity,Escherichia coli [12],Active
same,inhibition,Escherichia coli [13],inactive
same,inhibition,Escherichia coli [14],Active
same,inhibition,Staphylococcus aureus [15],Active
same,inhibition,Staphylococcus aureus [16],Active
same,inhibition,Staphylococcus aureus [17],Active
same,inhibition,Staphylococcus aureus [18],Active
same,Activity,Escherichia coli [19],Active
same,Activity,Escherichia coli [20],Active
same,Activity,Staphylococcus aureus [21],inactive
same,Activity,Staphylococcus aureus [22],Active
same,Activity,Staphylococcus aureus [23],Active
same,Activity,Staphylococcus aureus [24],Active
same,Activity,Escherichia coli [25],Tde
same,Activity,Escherichia coli [26],Active
same,Activity,Staphylococcus aureus [27],Tde
same,Activity,Staphylococcus aureus [28],Dose-Dependent Effect
same,Activity,Escherichia coli [29],Active
same,Activity,Escherichia coli [30],inactive
same,Activity,Cell membrane [31],Active
same,Activity,Cell membrane [32],Active
same,Activity,Cell membrane [33],Active
same,Activity,Cell membrane [34],inactive
same,Activity,Escherichia coli [35],Active
same,Activity,Staphylococcus aureus [36],Active
same,Activity,Staphylococcus aureus [37],Active
same,Activity,Staphylococcus aureus [38],Active
